Test results published in patent publication US11731968B2, “Tricyclic protein kinase inhibitors for promoting liver regeneration or reducing or preventing hepatocyte death” (HEPAREGENIX GMBH, priority 2018, dated 2023).

Legend:
MKK4 = biological target: T1, MKK4 (Homo sapiens, UniProt P45985); test: KINOMEscan competition binding assay, MKK4 potency; settings: compound concentration 100 nM; lower numbers indicate stronger binding
T1 construct: S84/D399; host or cells: HEK-293
T1 sequence (P45985 84-399): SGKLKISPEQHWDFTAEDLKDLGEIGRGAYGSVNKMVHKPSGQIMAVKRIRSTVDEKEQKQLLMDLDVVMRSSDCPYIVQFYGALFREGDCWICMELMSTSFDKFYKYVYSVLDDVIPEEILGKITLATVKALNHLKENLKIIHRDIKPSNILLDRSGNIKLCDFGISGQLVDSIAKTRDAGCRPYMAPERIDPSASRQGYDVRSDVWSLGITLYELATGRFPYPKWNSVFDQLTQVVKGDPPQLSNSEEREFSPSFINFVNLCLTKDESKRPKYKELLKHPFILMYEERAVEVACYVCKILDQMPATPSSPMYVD
Protocol: (§1) The assay was performed by combining three components: DNA-tagged kinase; immobilized ligand; and a test compound. The ability of the test compound to compete with the immobilized ligand was measured via quantitative PCR of the DNA tag. The technology is described in detail in Fabian, M. A. et al., A small molecule-kinase interaction map for clinical kinase inhibitors. Nat.
(§2) For investigation of the affinity to MKK4, MKK7 and JNK1, the kinases were produced in HEK-293 cells and subsequently tagged with DNA for qPCR detection. […] The liganded beads were blocked with excess biotin and washed with blocking buffer (SEABLOCK™ (Pierce), 1% BSA, 0.05% TWEEN®20, 1 mM DTT) to remove unbound ligand and to reduce nonspecific binding. […] All reactions were performed in polystyrene 96-well plates in a final volume of 0.135 mL. […] The kinase concentration in the eluates was measured by qPCR.
(§3) The test compounds were provided as 10 mM stock solutions. The test solutions at indicated final concentrations were prepared at DiscoverX.

JNK1 = biological target: T2, JNK1 (Homo sapiens, UniProt P45983); test: KINOMEscan competition binding, selectivity against off-target JNK1 (PoC ratio JNK1/MKK4); settings: compound concentration 100 nM
T2 construct: M1/Q384; host or cells: HEK-293
T2 sequence (P45983 1-384 isoform P45983-2): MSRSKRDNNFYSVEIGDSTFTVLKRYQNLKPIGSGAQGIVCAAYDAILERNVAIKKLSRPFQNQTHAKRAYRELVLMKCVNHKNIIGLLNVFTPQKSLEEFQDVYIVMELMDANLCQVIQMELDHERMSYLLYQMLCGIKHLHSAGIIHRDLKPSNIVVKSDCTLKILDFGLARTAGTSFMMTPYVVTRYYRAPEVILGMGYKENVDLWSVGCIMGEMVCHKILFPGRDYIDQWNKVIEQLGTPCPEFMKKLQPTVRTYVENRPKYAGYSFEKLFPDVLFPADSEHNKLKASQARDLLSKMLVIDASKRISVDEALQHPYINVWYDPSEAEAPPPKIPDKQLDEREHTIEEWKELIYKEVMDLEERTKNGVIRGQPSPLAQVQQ
Protocol: as §1, §2, §3

BRaf = BRaf (Homo sapiens, UniProt P15056); test: KINOMEscan competition binding, selectivity against off-target BRaf (PoC ratio BRaf/MKK4); settings: compound concentration 100 nM
Chain of BRaf (P15056 whole entry): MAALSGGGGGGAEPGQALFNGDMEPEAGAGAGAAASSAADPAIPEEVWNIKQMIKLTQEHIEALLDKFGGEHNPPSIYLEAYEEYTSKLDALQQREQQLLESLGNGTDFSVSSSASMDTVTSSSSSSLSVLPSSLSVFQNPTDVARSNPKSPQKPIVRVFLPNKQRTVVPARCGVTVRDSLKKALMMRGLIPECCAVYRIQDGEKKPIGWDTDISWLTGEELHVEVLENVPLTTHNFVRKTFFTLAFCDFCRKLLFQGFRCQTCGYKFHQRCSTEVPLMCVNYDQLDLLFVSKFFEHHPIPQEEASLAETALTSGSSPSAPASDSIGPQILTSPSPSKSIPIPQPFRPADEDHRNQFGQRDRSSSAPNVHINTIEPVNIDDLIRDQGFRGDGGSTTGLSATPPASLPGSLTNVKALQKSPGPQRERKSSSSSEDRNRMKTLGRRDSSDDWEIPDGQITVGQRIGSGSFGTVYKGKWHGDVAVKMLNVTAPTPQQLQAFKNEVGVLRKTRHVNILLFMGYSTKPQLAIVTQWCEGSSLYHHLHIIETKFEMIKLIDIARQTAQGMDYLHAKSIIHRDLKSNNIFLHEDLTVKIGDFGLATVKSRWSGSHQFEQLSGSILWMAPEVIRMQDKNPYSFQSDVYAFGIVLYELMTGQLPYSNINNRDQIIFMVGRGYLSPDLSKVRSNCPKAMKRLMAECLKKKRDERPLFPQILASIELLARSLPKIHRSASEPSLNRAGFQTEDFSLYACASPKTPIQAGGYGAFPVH
Protocol: as §1, §3

MKK7 = biological target: T3, MKK7 (Homo sapiens, UniProt O14733); test: KINOMEscan competition binding, selectivity against off-target MKK7 (PoC ratio MKK7/MKK4); settings: compound concentration 100 nM
T3 construct: M1/R419; host or cells: HEK-293
T3 sequence (O14733 1-419): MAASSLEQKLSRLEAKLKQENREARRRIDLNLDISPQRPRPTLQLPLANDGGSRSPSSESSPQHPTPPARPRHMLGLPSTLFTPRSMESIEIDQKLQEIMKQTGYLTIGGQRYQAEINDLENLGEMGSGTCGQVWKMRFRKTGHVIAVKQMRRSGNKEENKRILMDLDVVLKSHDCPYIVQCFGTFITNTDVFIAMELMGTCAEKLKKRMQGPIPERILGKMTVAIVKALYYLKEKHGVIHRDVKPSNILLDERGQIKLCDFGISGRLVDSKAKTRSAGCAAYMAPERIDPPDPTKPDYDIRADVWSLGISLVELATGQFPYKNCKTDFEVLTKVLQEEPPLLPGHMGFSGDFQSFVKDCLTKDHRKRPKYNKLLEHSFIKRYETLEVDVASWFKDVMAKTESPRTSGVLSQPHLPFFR
Protocol: as §1, §2, §3

SMILES | MKK4 residual percent of control binding (PoC) (MKK4) | Selectivity vs. JNK1, ratio PoC(JNK1)/PoC(MKK4) (JNK1) | Selectivity vs. BRaf, ratio PoC(BRaf)/PoC(MKK4) (BRaf) | Selectivity vs. MKK7, ratio PoC(MKK7)/PoC(MKK4) (MKK7)
CCCS(=O)(=O)Nc1cccc(C(=O)c2ccc3[nH]c4ncc(Cl)cc4c3c2)c1F [Example 8, N-(3-(3-chloro-9H-pyrido[2,3-b]indole-6-carbonyl)-2-fluorophenyl)propane-1-sulfonamide] | + (10 ≤ PoC < 30 = “+”) | +++ (PoC(JNK1)/PoC(MKK4) ≥ 30 = “+++”) | +++ (PoC(BRaf)/PoC(MKK4) ≥ 30 = “+++”) | +++ (PoC(MKK7)/PoC(MKK4) ≥ 30 = “+++”)
CCCS(=O)(=O)Nc1ccc(F)c(C(=O)c2ccc3[nH]c4ncc(-c5ccc(C(N)=O)cc5)cc4c3c2)c1F [Example 4e] | + + + | +++ (PoC(JNK1)/PoC(MKK4) ≥ 30 = “+++”) | +++ (PoC(BRaf)/PoC(MKK4) ≥ 30 = “+++”) | +++ (PoC(MKK7)/PoC(MKK4) ≥ 30 = “+++”)
CS(=O)(=O)Nc1c(F)ccc(C(=O)c2ccc3[nH]c4ncc(Cl)cc4c3c2)c1F [Example 9, N-(3-(3-chloro-9H-pyrido[2,3-b]indole-6-carbonyl)-2,6-difluorophenyl)methanesulfonamide] | + + + | +++ (PoC(JNK1)/PoC(MKK4) ≥ 30 = “+++”) | +++ (PoC(BRaf)/PoC(MKK4) ≥ 30 = “+++”) | +++ (PoC(MKK7)/PoC(MKK4) ≥ 30 = “+++”)
CCCS(=O)(=O)Nc1ccc(F)c(C(=O)c2ccc3[nH]c4ncc(-c5ccc(S(N)(=O)=O)cc5)cc4c3c2)c1F [Example 4b] | + + | +++ (PoC(JNK1)/PoC(MKK4) ≥ 30 = “+++”) | +++ (PoC(BRaf)/PoC(MKK4) ≥ 30 = “+++”) | +++ (PoC(MKK7)/PoC(MKK4) ≥ 30 = “+++”)
CCCS(=O)(=O)Nc1ccc(F)c(C(=O)c2ccc3[nH]c4ncc(-c5ccc(N)nc5)cc4c3c2)c1F [Example 7, N-(3-(3-(6-aminopyridin-3-yl)-9H-pyrido[2,3-b]indole-6-carbonyl)-2,4-difluorophenyl)propane-1-sulfonamide] | + + + | +++ (PoC(JNK1)/PoC(MKK4) ≥ 30 = “+++”) | +++ (PoC(BRaf)/PoC(MKK4) ≥ 30 = “+++”) | +++ (PoC(MKK7)/PoC(MKK4) ≥ 30 = “+++”)
CCCS(=O)(=O)Nc1ccc(F)c(C(=O)c2ccc3[nH]c4ncc(-c5ccc(C(=O)O)cc5)cc4c3c2)c1F [Example 4n] | + + + | +++ (PoC(JNK1)/PoC(MKK4) ≥ 30 = “+++”) | +++ (PoC(BRaf)/PoC(MKK4) ≥ 30 = “+++”) | +++ (PoC(MKK7)/PoC(MKK4) ≥ 30 = “+++”)
CCS(=O)(=O)Nc1ccc(F)c(C(=O)c2ccc3[nH]c4ncc(-c5ccc(S(N)(=O)=O)cc5)cc4c3c2)c1F [Example 4k] | + + + | +++ (PoC(JNK1)/PoC(MKK4) ≥ 30 = “+++”) | +++ (PoC(BRaf)/PoC(MKK4) ≥ 30 = “+++”) | +++ (PoC(MKK7)/PoC(MKK4) ≥ 30 = “+++”)
CS(=O)(=O)Nc1ccc(F)c(C(=O)c2ccc3[nH]c4ncc(-c5ccc(S(N)(=O)=O)cc5)cc4c3c2)c1F [Example 4j] | + + + | +++ (PoC(JNK1)/PoC(MKK4) ≥ 30 = “+++”) | +++ (PoC(BRaf)/PoC(MKK4) ≥ 30 = “+++”) | +++ (PoC(MKK7)/PoC(MKK4) ≥ 30 = “+++”)
CCCS(=O)(=O)Nc1ccc(F)c(C(=O)c2ccc3[nH]c4ncc(-c5ccc(OCC(O)CO)cc5)cc4c3c2)c1F (centres unmarked) [Example 4m] | + + + | +++ (PoC(JNK1)/PoC(MKK4) ≥ 30 = “+++”) | +++ (PoC(BRaf)/PoC(MKK4) ≥ 30 = “+++”) | +++ (PoC(MKK7)/PoC(MKK4) ≥ 30 = “+++”)
CCCS(=O)(=O)Nc1ccc(F)c(C(=O)c2ccc3[nH]c4ncc(-c5ccncc5)cc4c3c2)c1F [Example 4a] | + + + | +++ (PoC(JNK1)/PoC(MKK4) ≥ 30 = “+++”) | +++ (PoC(BRaf)/PoC(MKK4) ≥ 30 = “+++”) | +++ (PoC(MKK7)/PoC(MKK4) ≥ 30 = “+++”)
CCCS(=O)(=O)Nc1ccc(F)c(C(=O)c2ccc3[nH]c4ncc(-c5ccc(-c6nnn[nH]6)cc5)cc4c3c2)c1F [Example 4f] | + + | +++ (PoC(JNK1)/PoC(MKK4) ≥ 30 = “+++”) | +++ (PoC(BRaf)/PoC(MKK4) ≥ 30 = “+++”) | +++ (PoC(MKK7)/PoC(MKK4) ≥ 30 = “+++”)
